Results: patent US11000033B2, “Ketone or oxime compound, and herbicide” (NISSAN CHEMICAL CORPORATION, priority 2014, dated 2021)

Legend:
Type in all cases: in vivo
[1] = system: Echinochloa oryzacola Vasing.; assay: Test Example 2: herbicidal activity, application during weed generation in submerged conditions (symbol A); details: Table 23; application herbicide amount 320 g/ha; grade 0-5 by criteria of Test Example 1
Outline: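 Each pot contained alluvial soil under 4 cm of water with seeds of all three weeds sown together. Following growth at 25° C. to 30° C. to the one- to two-leaf stage, the floodwater received diluted emulsion at a predetermined amount; visual assessment followed at 3 weeks.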

[2] = system: Cyperus difformis; assay: Test Example 3: herbicidal effect by foliage application, Wagner pot (symbol E); details: application herbicide amount 320 g/ha
Outline: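 Seeds sown in alluvial soil kept under 0.1–0.5 cm water, greenhouse 25–30 °C; 14 d growth. Leaves treated by small sprayer with water-diluted emulsion at a predetermined rate. Effect graded by set scale, 3 weeks.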

[3] = system: directly sowed rice plant; assay: Test Example 3: effect on crop by foliage application, Wagner pot (symbol b); details: application herbicide amount 320 g/ha
Outline: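 Steps: fill a 1/10000-are Wagner pot with alluvial soil; add water and mix to submerge at 0.1–0.5 cm depth; sow rice plus Echinochloa crus-galli var. crus-galli, Leptochloa chinensis and Cyperus difformis; grow in a 25–30 °C greenhouse.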

[4] = system: Digitaria ciliaris; assay: Test Example 4: herbicidal effect by soil treatment (symbol F)
Outline: (§1)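 Seeds were sown in sterilized diluvial soil, covered with about 1.5 cm of soil, and the soil surface was sprayed with a water-diluted emulsion of the compound at a predetermined rate. Plants grew in a greenhouse at 25° C. to 30° C.; effects were scored visually 3 weeks after application.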

[5] = system: Echinochloa crus-galli var. crus-galli; assay: Test Example 4: herbicidal effect by soil treatment (symbol H)
Outline: as §1

[6] = system: Lolium multiflorum Lam.; assay: Test Example 4: herbicidal effect by soil treatment (symbol K)
Outline: as §1

[7] = system: Abutilon theophrasti; assay: Test Example 4: herbicidal effect by soil treatment (symbol M)
Outline: as §1

[8] = system: corn; assay: Test Example 4: effect on crop by soil treatment (symbol c)
Outline: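 Crop seed is sown in spots together with several weed species in a box of sterilized diluvial soil. It is covered by about 1.5 cm of soil and kept in a greenhouse held between 25° C. and 30° C.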

[9] = system: rice; assay: Test Example 4: effect on crop by soil treatment (symbol b)
Outline: (§2)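 Plants are raised in a greenhouse (25° C. to 30° C.) from spot-sown seed, which sits under about 1.5 cm of sterilized diluvial soil in a box shared with weed species.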

[10] = system: wheat; assay: Test Example 4: effect on crop by soil treatment (symbol e)
Outline: as §2

[11] = system: beet; assay: Test Example 4: effect on crop by soil treatment (symbol f)
Outline: as §2

[12] = system: Digitaria ciliaris; assay: Test Example 5: herbicidal effect by foliage application, plastic box (symbol F); details: 320 g/ha, 3 weeks after application
Outline: (§3)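 Emulsion formulation, diluted with water to the intended rate, was applied uniformly to leaves by small sprayer. Recipients were 14-day greenhouse-grown seedlings (25° C. to 30° C.). Assessment followed at 3 weeks.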

[13] = system: Setaria viridis; assay: Test Example 5: herbicidal effect by foliage application, plastic box (symbol G); details: 320 g/ha, 3 weeks after application
Outline: as §3

[14] = system: Alopecurus myosuroides; assay: Test Example 5: herbicidal effect by foliage application, plastic box (symbol J); details: 320 g/ha, 3 weeks after application
Outline: as §3

[15] = system: Apera spica-venti; assay: Test Example 5: herbicidal effect by foliage application, plastic box (symbol L); details: 320 g/ha, 3 weeks after application
Outline: as §3

[16] = system: Veronica persica; assay: Test Example 5: herbicidal effect by foliage application, plastic box (symbol R); details: 320 g/ha, 3 weeks after application
Outline: as §3

[17] = system: beet; assay: Test Example 5: effect on crop by foliage application, plastic box (symbol f); details: 320 g/ha, 3 weeks after application
Outline: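 A greenhouse held between 25° C. and 30° C. was used to grow plants sown spot-wise, beneath ~1.5 cm of soil, in boxes of sterilized diluvial soil.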

[18] = application herbicide amount 320 g/ha

CON=C(C)CC1CC(OC(=O)COCC(F)(F)F)=C(c2c(C)cc(C)cc2C)C1=O (stereo not drawn) [1-092]
Herbicidal effect grade, A: Echinochloa oryzacola Vasing. [1]: 5 (Herbicidal ratio of 90% or more (almost completely withered))
herbicidal effect on E, grade 0-5 [2]: 5 (Herbicidal ratio of 90% or more (almost completely withered))
effect on crop b (directly sowed rice plant), grade 0-5 [3]: 5 (Herbicidal ratio of 90% or more (almost completely withered))
F: Digitaria ciliaris, herbicidal effect grade ([4]; 320 g/ha): 5 (Herbicidal ratio of 90% or more (almost completely withered))
H: Echinochloa crus-galli var. crus-galli, herbicidal effect grade ([5]; 320 g/ha): 5 (Herbicidal ratio of 90% or more (almost completely withered))
K: Lolium multiflorum Lam., herbicidal effect grade ([6]; 320 g/ha): 5 (Herbicidal ratio of 90% or more (almost completely withered))
M: Abutilon theophrasti, herbicidal effect grade ([7]; 320 g/ha): 3 (Herbicidal ratio of 40% or higher and lower than 70%)
c: corn, effect grade on crop ([8]; 320 g/ha): 5 (Herbicidal ratio of 90% or more (almost completely withered))
b: directly sowed rice plant, effect grade on crop ([9]; 320 g/ha): 5 (Herbicidal ratio of 90% or more (almost completely withered))
e: wheat, effect grade on crop ([10]; 320 g/ha): 4 (Herbicidal ratio of 70% or higher and lower than 90%)
f: beet, effect grade on crop ([11]; 320 g/ha): 0 (Herbicidal ratio of 5% or lower (almost no effect))
F: Digitaria ciliaris, herbicidal effect (criteria 0-5) [12]: 5 (Herbicidal ratio of 90% or more (almost completely withered))
G: Setaria viridis, herbicidal effect (criteria 0-5) [13]: 5 (Herbicidal ratio of 90% or more (almost completely withered))
J: Alopecurus myosuroides, herbicidal effect (criteria 0-5) [14]: 4 (Herbicidal ratio of 70% or higher and lower than 90%)
L: Apera spica-venti, herbicidal effect (criteria 0-5) [15]: 5 (Herbicidal ratio of 90% or more (almost completely withered))
R: Veronica persica, herbicidal effect (criteria 0-5) [16]: 0 (Herbicidal ratio of 5% or lower (almost no effect))
f: beet, effect on crop (criteria 0-5) [17]: 0 (Herbicidal ratio of 5% or lower (almost no effect))

CON=C(CC1CC(O)=C(c2c(C)cc(C)cc2C)C1=O)C(C)(C)C (stereo not drawn) [1-059]
Herbicidal effect grade, A: Echinochloa oryzacola Vasing. [1]: 4 (Herbicidal ratio of 70% or higher and lower than 90%)
herbicidal effect on E, grade 0-5 [2]: 3 (Herbicidal ratio of 40% or higher and lower than 70%)
effect on crop b (directly sowed rice plant), grade 0-5 [3]: 5 (Herbicidal ratio of 90% or more (almost completely withered))
F (Digitaria ciliaris) herbicidal effect grade [4, 18]: 4 (Herbicidal ratio of 70% or higher and lower than 90%)
H (Echinochloa crus-galli var. crus-galli) herbicidal effect grade [5, 18]: 4 (Herbicidal ratio of 70% or higher and lower than 90%)
K (Lolium multiflorum Lam.) herbicidal effect grade [6, 18]: 5 (Herbicidal ratio of 90% or more (almost completely withered))
M (Abutilon theophrasti) herbicidal effect grade [7, 18]: 1 (Herbicidal ratio of 5% or higher and lower than 20%)
c (corn) effect on crop grade [8, 18]: 3 (Herbicidal ratio of 40% or higher and lower than 70%)
b (directly sowed rice plant) effect on crop grade [9, 18]: 4 (Herbicidal ratio of 70% or higher and lower than 90%)
e (wheat) effect on crop grade [10, 18]: 0 (Herbicidal ratio of 5% or lower (almost no effect))
f (beet) effect on crop grade [11, 18]: 0 (Herbicidal ratio of 5% or lower (almost no effect))
F: Digitaria ciliaris, herbicidal effect grade [12]: 1 (Herbicidal ratio of 5% or higher and lower than 20%)
G: Setaria viridis, herbicidal effect grade [13]: 4 (Herbicidal ratio of 70% or higher and lower than 90%)
J: Alopecurus myosuroides, herbicidal effect grade [14]: 4 (Herbicidal ratio of 70% or higher and lower than 90%)
L: Apera spica-venti, herbicidal effect grade [15]: 4 (Herbicidal ratio of 70% or higher and lower than 90%)
R: Veronica persica, herbicidal effect grade [16]: 0 (Herbicidal ratio of 5% or lower (almost no effect))
f: beet, effect on crop grade [17]: 0 (Herbicidal ratio of 5% or lower (almost no effect))

CC(=O)CC1CC(O)=C(c2c(C)cc(-c3ncccn3)cc2C)C1=O (stereo not drawn) [7-017]
herbicidal effect on E, grade 0-5 [2]: 4 (Herbicidal ratio of 70% or higher and lower than 90%)
effect on crop b (directly sowed rice plant), grade 0-5 [3]: 5 (Herbicidal ratio of 90% or more (almost completely withered))
Herbicidal effect grade, F: Digitaria ciliaris [4, 18]: 4 (Herbicidal ratio of 70% or higher and lower than 90%)
Herbicidal effect grade, H: Echinochloa crus-galli var. crus-galli [5, 18]: 0 (Herbicidal ratio of 5% or lower (almost no effect))
Herbicidal effect grade, K: Lolium multiflorum Lam. [6, 18]: 0 (Herbicidal ratio of 5% or lower (almost no effect))
Herbicidal effect grade, M: Abutilon theophrasti [7, 18]: 0 (Herbicidal ratio of 5% or lower (almost no effect))
Effect on crop grade, c: corn [8, 18]: 0 (Herbicidal ratio of 5% or lower (almost no effect))
Effect on crop grade, b: directly sowed rice plant [9, 18]: 0 (Herbicidal ratio of 5% or lower (almost no effect))
Effect on crop grade, e: wheat [10, 18]: 0 (Herbicidal ratio of 5% or lower (almost no effect))
Effect on crop grade, f: beet [11, 18]: 0 (Herbicidal ratio of 5% or lower (almost no effect))
F: Digitaria ciliaris, herbicidal effect (criteria of Test Example 1) [12]: 5 (Herbicidal ratio of 90% or more (almost completely withered))
G: Setaria viridis, herbicidal effect (criteria of Test Example 1) [13]: 5 (Herbicidal ratio of 90% or more (almost completely withered))
J: Alopecurus myosuroides, herbicidal effect (criteria of Test Example 1) [14]: 2 (Herbicidal ratio of 20% or higher and lower than 40%)
L: Apera spica-venti, herbicidal effect (criteria of Test Example 1) [15]: 3 (Herbicidal ratio of 40% or higher and lower than 70%)
R: Veronica persica, herbicidal effect (criteria of Test Example 1) [16]: 0 (Herbicidal ratio of 5% or lower (almost no effect))
f: beet, effect on crop (criteria of Test Example 1) [17]: 0 (Herbicidal ratio of 5% or lower (almost no effect))

CC(=O)CC1CC(O)=C(c2c(C)cc(Oc3ccccc3)cc2C)C1=O (stereo not drawn) [7-014]
herbicidal effect on E, grade 0-5 [2]: 2 (Herbicidal ratio of 20% or higher and lower than 40%)
effect on crop b (directly sowed rice plant), grade 0-5 [3]: 5 (Herbicidal ratio of 90% or more (almost completely withered))
Herbicidal effect grade, F: Digitaria ciliaris [4, 18]: 3 (Herbicidal ratio of 40% or higher and lower than 70%)
Herbicidal effect grade, H: Echinochloa crus-galli var. crus-galli [5, 18]: 0 (Herbicidal ratio of 5% or lower (almost no effect))
Herbicidal effect grade, K: Lolium multiflorum Lam. [6, 18]: 3 (Herbicidal ratio of 40% or higher and lower than 70%)
Herbicidal effect grade, M: Abutilon theophrasti [7, 18]: 0 (Herbicidal ratio of 5% or lower (almost no effect))
Effect on crop grade, c: corn [8, 18]: 0 (Herbicidal ratio of 5% or lower (almost no effect))
Effect on crop grade, b: directly sowed rice plant [9, 18]: 4 (Herbicidal ratio of 70% or higher and lower than 90%)
Effect on crop grade, e: wheat [10, 18]: 0 (Herbicidal ratio of 5% or lower (almost no effect))
Effect on crop grade, f: beet [11, 18]: 0 (Herbicidal ratio of 5% or lower (almost no effect))
F: Digitaria ciliaris, herbicidal effect (criteria of Test Example 1) [12]: 5 (Herbicidal ratio of 90% or more (almost completely withered))
G: Setaria viridis, herbicidal effect (criteria of Test Example 1) [13]: 0 (Herbicidal ratio of 5% or lower (almost no effect))
J: Alopecurus myosuroides, herbicidal effect (criteria of Test Example 1) [14]: 0 (Herbicidal ratio of 5% or lower (almost no effect))
L: Apera spica-venti, herbicidal effect (criteria of Test Example 1) [15]: 0 (Herbicidal ratio of 5% or lower (almost no effect))
R: Veronica persica, herbicidal effect (criteria of Test Example 1) [16]: 0 (Herbicidal ratio of 5% or lower (almost no effect))
f: beet, effect on crop (criteria of Test Example 1) [17]: 0 (Herbicidal ratio of 5% or lower (almost no effect))
